Source: ChEMBL document CHEMBL5113453, “Design, synthesis, and biological evaluation of a new series of pyrazole derivatives: Discovery of potent and selective JNK3 kinase inhibitors” (Bioorg Med Chem, 2022)

Tests used:
[1] = target: T1, Vascular endothelial growth factor receptor 3 (Homo sapiens, UniProt P35916); experiment: Inhibition of FLT4 (unknown origin)
RPMI-8226 [2] = experiment: Induction of necrosis in human RPMI-8226 cells assessed as LDH release at 0.87 uM; assay type: functional
[3] = target: T2, Mitogen-activated protein kinase 8 (Homo sapiens, UniProt P45983); experiment: Inhibition of JNK1-alpha-1 (unknown origin) at 1 uM relative to control
T2 sequence (P45983 whole entry): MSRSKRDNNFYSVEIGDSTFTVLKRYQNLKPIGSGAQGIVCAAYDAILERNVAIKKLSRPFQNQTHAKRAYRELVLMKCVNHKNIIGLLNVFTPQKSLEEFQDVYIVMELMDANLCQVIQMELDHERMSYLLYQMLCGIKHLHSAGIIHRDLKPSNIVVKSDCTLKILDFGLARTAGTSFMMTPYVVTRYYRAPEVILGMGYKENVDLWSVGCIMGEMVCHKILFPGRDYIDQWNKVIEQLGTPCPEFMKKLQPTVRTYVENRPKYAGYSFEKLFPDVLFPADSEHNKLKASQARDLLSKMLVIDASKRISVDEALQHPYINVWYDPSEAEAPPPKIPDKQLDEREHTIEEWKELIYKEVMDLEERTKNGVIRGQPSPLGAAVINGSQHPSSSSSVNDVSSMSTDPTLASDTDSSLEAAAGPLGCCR

NCI-H23 = experiment: Antiproliferative activity against human NCI-H23 cells measured after 48 hrs by SRB assay; assay type: functional, cell-based
Hs-578T = experiment: Antiproliferative activity against human Hs-578T cells measured after 48 hrs by SRB assay; assay type: functional, cell-based
HT-29 = experiment: Antiproliferative activity against human HT-29 cells measured after 48 hrs by SRB assay; assay type: functional, cell-based
[4] = target: Mitogen-activated protein kinase 10 (Homo sapiens, UniProt P53779); experiment: Inhibition of JNK3 in human HEK293 cells transfected with JNK3-NanoLuc fusion vector measured after 1 hr by NanoBRET assay; assay type: cell-based
Sequence of Mitogen-activated protein kinase 10 (P53779 whole entry, the tested form may be a part): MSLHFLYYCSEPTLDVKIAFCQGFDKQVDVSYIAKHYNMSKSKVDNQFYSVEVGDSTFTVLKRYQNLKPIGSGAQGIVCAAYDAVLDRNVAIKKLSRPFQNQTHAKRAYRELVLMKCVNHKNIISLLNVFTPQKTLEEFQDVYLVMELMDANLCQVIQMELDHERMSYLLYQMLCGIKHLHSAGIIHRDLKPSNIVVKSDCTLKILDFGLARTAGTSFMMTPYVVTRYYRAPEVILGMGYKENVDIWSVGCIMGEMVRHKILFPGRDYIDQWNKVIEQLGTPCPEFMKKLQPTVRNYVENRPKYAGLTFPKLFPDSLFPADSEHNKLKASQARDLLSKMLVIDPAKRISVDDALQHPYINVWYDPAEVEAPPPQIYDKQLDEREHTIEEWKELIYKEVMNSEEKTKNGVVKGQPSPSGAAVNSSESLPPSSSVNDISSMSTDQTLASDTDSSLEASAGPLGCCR

SN12C = experiment: Antiproliferative activity against human SN12C cells measured after 48 hrs by SRB assay; assay type: functional, cell-based
NCI-H522 = experiment: Antiproliferative activity against human NCI-H522 cells measured after 48 hrs by SRB assay; assay type: functional, cell-based
NCI-H226 = experiment: Antiproliferative activity against human NCI-H226 cells measured after 48 hrs by SRB assay; assay type: functional, cell-based
EKVX = experiment: Antiproliferative activity against human EKVX cells measured after 48 hrs by SRB assay; assay type: functional, cell-based
IGROV-1 = experiment: Antiproliferative activity against human IGROV-1 cells measured after 48 hrs by SRB assay; assay type: functional, cell-based
U-251 = experiment: Antiproliferative activity against human U-251 cells measured after 48 hrs by SRB assay; assay type: functional, cell-based
Homo sapiens = species: Homo sapiens; experiment: Ratio IC50 for inhibition of FLT4 (unknown origin) over IC50 for JNK3 (unknown origin)
HCT-15 = experiment: Antiproliferative activity against human HCT-15 cells measured after 48 hrs by SRB assay; assay type: functional, cell-based
RPMI-8226 [5] = experiment: Induction of apoptosis in human RPMI-8226 cells assessed as fold increase in caspase-3/7 activity at 0.87 uM; assay type: functional
DU-145 = experiment: Antiproliferative activity against human DU-145 cells measured after 48 hrs by SRB assay; assay type: functional, cell-based
SR = experiment: Antiproliferative activity against human SR cells measured after 48 hrs by SRB assay; assay type: functional, cell-based
MCF7 = experiment: Antiproliferative activity against human MCF7 cells measured after 48 hrs by SRB assay; assay type: functional, cell-based
RPMI-8226 [6] = experiment: Induction of apoptosis in human RPMI-8226 cells assessed as fold increase in caspase-3/7 activity at 5.47 uM; assay type: functional
HOP-62 = experiment: Antiproliferative activity against human HOP-62 cells measured after 48 hrs by SRB assay; assay type: functional, cell-based
[7] = target: Voltage-gated inwardly rectifying potassium channel KCNH2 (Homo sapiens, UniProt Q12809); experiment: Inhibition of hERG measured by fluorescence polarization assay
[8] = target: Mitogen-activated protein kinase 9 (Homo sapiens, UniProt P45984); experiment: Inhibition of JNK2-alpha-2 (unknown origin) at 1 uM relative to control
Sequence of Mitogen-activated protein kinase 9 (P45984 whole entry, looked up): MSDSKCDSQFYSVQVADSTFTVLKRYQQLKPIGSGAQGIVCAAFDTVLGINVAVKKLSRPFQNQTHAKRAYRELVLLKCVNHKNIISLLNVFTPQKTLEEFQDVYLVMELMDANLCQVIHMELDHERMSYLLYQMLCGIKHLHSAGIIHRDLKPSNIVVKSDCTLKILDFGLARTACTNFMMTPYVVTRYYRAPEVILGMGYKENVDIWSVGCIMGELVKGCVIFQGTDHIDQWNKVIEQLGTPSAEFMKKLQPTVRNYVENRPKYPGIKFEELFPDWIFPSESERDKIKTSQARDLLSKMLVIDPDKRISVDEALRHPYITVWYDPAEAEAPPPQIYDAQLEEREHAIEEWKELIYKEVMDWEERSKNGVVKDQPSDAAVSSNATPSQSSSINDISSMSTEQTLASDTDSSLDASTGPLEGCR

BT-549 = experiment: Antiproliferative activity against human BT-549 cells measured after 48 hrs by SRB assay; assay type: functional, cell-based
[9] = target: T2, Mitogen-activated protein kinase 8; experiment: Inhibition of JNK1-alpha-1 (unknown origin)
[10] = target: T1, Vascular endothelial growth factor receptor 3; experiment: Inhibition of FLT4 (unknown origin) at 1 uM relative to control
UO-31 = experiment: Antiproliferative activity against human UO-31 cells measured after 48 hrs by SRB assay; assay type: functional, cell-based
T47D = experiment: Antiproliferative activity against human T47D cells measured after 48 hrs by SRB assay; assay type: functional, cell-based
Malme-3M = experiment: Antiproliferative activity against human Malme-3M cells measured after 48 hrs by SRB assay; assay type: functional, cell-based
Cytochrome P450 3A4 = Cytochrome P450 3A4 (Homo sapiens, UniProt P08684); experiment: Inhibition of CYP3A4 (unknown origin) using BOMCC as a substrate; assay type: ADME
Sequence of Cytochrome P450 3A4 (P08684 whole entry): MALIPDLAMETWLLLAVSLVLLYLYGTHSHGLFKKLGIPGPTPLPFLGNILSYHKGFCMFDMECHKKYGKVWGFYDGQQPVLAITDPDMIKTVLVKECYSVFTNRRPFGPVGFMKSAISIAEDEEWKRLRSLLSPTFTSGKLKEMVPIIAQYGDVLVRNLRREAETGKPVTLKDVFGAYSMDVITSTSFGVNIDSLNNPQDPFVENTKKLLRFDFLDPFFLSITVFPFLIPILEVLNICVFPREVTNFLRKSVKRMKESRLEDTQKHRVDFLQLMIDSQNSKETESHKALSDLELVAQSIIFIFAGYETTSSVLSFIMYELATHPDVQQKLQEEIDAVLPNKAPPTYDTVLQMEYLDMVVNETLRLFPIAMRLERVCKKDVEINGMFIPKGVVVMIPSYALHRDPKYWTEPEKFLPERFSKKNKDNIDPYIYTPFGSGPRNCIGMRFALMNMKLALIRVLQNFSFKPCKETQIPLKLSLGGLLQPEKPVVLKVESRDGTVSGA

SNB-19 = experiment: Antiproliferative activity against human SNB-19 cells measured after 48 hrs by SRB assay; assay type: functional, cell-based
OVCAR-8 = experiment: Antiproliferative activity against human OVCAR-8 cells measured after 48 hrs by SRB assay; assay type: functional, cell-based
[11] = test system: Serine/threonine-protein kinase B-raf (Homo sapiens), P15056 [V600E]; experiment: Inhibition of B-RAF V600E mutant (unknown origin) at 1 uM relative to control
Sequence of Serine/threonine-protein kinase B-raf (Homo sapiens), P15056 [V600E] (P15056 whole entry V600E): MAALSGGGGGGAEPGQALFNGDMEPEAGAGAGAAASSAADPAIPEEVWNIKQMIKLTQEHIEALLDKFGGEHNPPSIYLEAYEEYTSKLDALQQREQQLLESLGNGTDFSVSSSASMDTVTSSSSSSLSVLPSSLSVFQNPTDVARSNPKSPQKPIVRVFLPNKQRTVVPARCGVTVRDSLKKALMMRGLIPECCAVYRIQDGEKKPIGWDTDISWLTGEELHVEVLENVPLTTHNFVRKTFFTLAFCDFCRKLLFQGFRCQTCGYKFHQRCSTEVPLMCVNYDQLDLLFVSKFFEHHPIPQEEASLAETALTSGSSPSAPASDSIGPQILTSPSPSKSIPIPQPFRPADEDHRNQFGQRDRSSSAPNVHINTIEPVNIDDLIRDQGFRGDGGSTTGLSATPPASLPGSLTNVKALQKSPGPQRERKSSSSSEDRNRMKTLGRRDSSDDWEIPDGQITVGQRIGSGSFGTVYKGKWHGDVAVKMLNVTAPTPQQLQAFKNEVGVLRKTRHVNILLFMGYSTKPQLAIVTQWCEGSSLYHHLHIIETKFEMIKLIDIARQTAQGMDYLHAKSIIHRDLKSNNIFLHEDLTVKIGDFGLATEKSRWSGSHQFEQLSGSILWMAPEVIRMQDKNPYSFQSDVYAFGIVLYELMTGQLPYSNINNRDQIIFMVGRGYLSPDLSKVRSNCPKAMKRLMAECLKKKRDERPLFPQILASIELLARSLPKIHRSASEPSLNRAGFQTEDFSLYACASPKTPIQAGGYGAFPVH

SF-539 = experiment: Antiproliferative activity against human SF-539 cells measured after 48 hrs by SRB assay; assay type: functional, cell-based
786-0 = experiment: Antiproliferative activity against human 786-0 cells measured after 48 hrs by SRB assay; assay type: functional, cell-based
Cytochrome P450 2D6 = Cytochrome P450 2D6 (Homo sapiens, UniProt P10635); experiment: Inhibition of CYP2D6 (unknown origin) using EOMCC as a substrate; assay type: ADME
Sequence of Cytochrome P450 2D6 (P10635 whole entry): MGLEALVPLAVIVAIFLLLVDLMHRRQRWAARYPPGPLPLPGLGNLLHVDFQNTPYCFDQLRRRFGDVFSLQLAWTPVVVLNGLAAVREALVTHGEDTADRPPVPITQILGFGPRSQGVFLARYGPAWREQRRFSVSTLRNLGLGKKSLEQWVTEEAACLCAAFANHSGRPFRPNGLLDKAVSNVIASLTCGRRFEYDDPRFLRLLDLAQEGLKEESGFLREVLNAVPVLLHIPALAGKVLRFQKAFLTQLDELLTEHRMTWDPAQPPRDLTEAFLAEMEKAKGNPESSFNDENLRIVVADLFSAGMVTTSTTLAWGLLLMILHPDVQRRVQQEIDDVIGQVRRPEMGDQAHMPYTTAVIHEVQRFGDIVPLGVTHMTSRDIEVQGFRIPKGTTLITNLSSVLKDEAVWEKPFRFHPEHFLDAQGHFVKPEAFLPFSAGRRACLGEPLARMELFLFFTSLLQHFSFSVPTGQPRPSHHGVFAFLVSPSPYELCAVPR

HCC 2998 = experiment: Antiproliferative activity against human HCC 2998 cells measured after 48 hrs by SRB assay; assay type: functional, cell-based

T1 sequence (P35916 whole entry): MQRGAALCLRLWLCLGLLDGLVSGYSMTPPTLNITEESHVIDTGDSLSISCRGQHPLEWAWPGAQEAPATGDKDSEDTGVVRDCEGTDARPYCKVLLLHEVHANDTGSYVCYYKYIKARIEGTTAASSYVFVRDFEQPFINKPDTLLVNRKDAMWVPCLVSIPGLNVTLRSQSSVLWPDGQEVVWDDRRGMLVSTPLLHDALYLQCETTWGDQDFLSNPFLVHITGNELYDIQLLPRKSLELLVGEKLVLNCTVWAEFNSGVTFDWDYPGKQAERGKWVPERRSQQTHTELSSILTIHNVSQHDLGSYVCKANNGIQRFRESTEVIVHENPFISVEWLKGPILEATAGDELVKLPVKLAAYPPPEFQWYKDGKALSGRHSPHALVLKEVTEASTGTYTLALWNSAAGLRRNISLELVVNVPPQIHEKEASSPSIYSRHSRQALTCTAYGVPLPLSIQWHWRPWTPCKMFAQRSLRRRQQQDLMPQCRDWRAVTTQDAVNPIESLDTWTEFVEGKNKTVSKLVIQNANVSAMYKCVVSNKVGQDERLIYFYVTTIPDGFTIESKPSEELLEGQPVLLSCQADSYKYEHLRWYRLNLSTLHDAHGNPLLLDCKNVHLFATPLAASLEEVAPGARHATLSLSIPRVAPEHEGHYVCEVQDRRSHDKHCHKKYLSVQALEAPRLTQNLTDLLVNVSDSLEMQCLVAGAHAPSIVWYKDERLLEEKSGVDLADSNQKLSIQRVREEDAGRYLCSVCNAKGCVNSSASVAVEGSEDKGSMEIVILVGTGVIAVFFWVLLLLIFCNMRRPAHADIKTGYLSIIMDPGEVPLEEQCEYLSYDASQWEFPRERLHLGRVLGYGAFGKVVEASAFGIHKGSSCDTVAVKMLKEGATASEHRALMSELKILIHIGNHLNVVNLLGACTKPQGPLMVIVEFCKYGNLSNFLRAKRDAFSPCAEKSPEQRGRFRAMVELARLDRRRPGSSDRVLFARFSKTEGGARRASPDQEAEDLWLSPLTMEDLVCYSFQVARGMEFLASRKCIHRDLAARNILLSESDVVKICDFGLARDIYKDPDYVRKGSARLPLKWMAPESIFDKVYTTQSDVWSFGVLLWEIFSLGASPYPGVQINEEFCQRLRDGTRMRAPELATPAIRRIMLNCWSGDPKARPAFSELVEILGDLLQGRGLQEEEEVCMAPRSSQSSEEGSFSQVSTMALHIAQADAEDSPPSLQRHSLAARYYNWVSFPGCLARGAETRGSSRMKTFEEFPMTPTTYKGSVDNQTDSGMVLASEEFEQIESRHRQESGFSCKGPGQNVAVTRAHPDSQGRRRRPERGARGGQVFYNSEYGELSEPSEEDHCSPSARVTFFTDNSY

Molecule `O=C(NCCCNc1cc(-c2cn(-c3ccccc3)nc2-c2cccc(O)c2)ccn1)Nc1ccc(F)cc1` has an IC50 [1] of 0.791 µM, an Activity (RPMI-8226 [2]) of 8.5% and an inhibition [3] of 52%. It also gave an IC50 (NCI-H23; NCI-H23, 48 h) of 3.11 µM, a TGI (NCI-H23; NCI-H23, time 48 hrs) of 7.65 µM and an IC50 (Hs-578T; 48 h) of 0.98 µM. The TGI (Hs-578T; time 48 hrs) was 5.31 µM, the IC50 (HT-29; HT-29, 48 h) was 1.09 µM and the TGI (HT-29; HT-29, time 48 hrs) was 4.99 µM. For the same molecule, the IC50 [4] was 3.84 µM, the IC50 (SN12C; 48 h) was 2.79 µM and the TGI (SN12C; time 48 hrs) was 8.37 µM. The IC50 (NCI-H522; NCI-H522, 48 h) was 4.03 µM, the TGI (NCI-H522; NCI-H522, time 48 hrs) was 9.49 µM and the IC50 (NCI-H226; NCI-H226, 48 h) was 3.39 µM. The TGI (NCI-H226; NCI-H226, time 48 hrs) was 8.91 µM, the IC50 (EKVX; 48 h) was 2.74 µM and the TGI (EKVX; time 48 hrs) was 9.51 µM. For the same molecule, the IC50 (IGROV-1; IGROV-1, 48 h) was 1.23 µM, the TGI (IGROV-1; IGROV-1, time 48 hrs) was 5.82 µM and the IC50 (U-251; U-251, 48 h) was 2.05 µM. For the same molecule, the TGI (U-251; U-251, time 48 hrs) was 7.55 µM, the Ratio IC50 (Homo sapiens) was 8.2 and the IC50 (HCT-15; HCT-15, 48 h) was 0.94 µM. The TGI (HCT-15; HCT-15, time 48 hrs) was 4.04 µM, the “fold change (FC)” value (RPMI-8226 [5]) was 1.84 and the IC50 (DU-145; DU-145, 48 h) was 4.22 µM. It also gave a TGI (DU-145; DU-145, time 48 hrs) of 19.3 µM, an IC50 (SR; 48 h) of 1.51 µM and a TGI (SR; time 48 hrs) of 13.8 µM. The IC50 (MCF7; MCF7, 48 h) was 2.32 µM, the TGI (MCF7; MCF7, time 48 hrs) was 6.04 µM and the “fold change (FC)” value (RPMI-8226 [6]) was 2.75. It also gave an IC50 (HOP-62; HOP-62, 48 h) of 3.24 µM, a TGI (HOP-62; HOP-62, time 48 hrs) of 9.26 µM and an IC50 [7] greater than 50 µM. The inhibition [8] was 53%, the IC50 (BT-549; BT-549, 48 h) was 2.18 µM and the TGI (BT-549; BT-549, time 48 hrs) was 11.6 µM. The IC50 [9] was 1 µM, the inhibition [10] was 84% and the IC50 (UO-31; UO-31, 48 h) was 1.58 µM. It also gave a TGI (UO-31; UO-31, time 48 hrs) of 9.7 µM, an IC50 (T47D; 48 h) of 1.89 µM and a TGI (T47D; time 48 hrs) of 11 µM. It also gave an IC50 (Malme-3M; 48 h) of 0.83 µM, a TGI (Malme-3M; time 48 hrs) of 3.42 µM and an IC50 (Cytochrome P450 3A4) of 18.7 µM. For the same molecule, the IC50 (SNB-19; SNB-19, 48 h) was 3.29 µM, the TGI (SNB-19; SNB-19, time 48 hrs) was 9.75 µM and the IC50 (OVCAR-8; OVCAR-8, 48 h) was 2.13 µM. It also gave a TGI (OVCAR-8; OVCAR-8, time 48 hrs) of 9.26 µM, an inhibition [11] of 4% and an IC50 (SF-539; SF-539, 48 h) of 1.98 µM. It also gave a TGI (SF-539; SF-539, time 48 hrs) of 5.38 µM, an IC50 (786-0; 786-0, 48 h) of 0.86 µM and a TGI (786-0; 786-0, time 48 hrs) of 3.61 µM. For the same molecule, the IC50 (Cytochrome P450 2D6) was 5.54 µM, the IC50 (HCC 2998; HCC 2998, 48 h) was 1.09 µM and the TGI (HCC 2998; HCC 2998, time 48 hrs) was 4.05 µM.
